Experimental data reported in ChEMBL document CHEMBL5724914, “Linking interpersonal differences in gut microbiota composition and drug biotransformation activity” (2024).

Tests used:
[1] = human gut metagenome, 24 h, 2 µM
[2] = (§1) The drug is tested on Z-028 corresponding to mouse gut metagenome with ENA study accession number: PRJEB37062 and ENA sample accession number: ERS12561827 for biotransformation under anaerobic condition. The drug concentrations were measured over 9 timepoints collected between 0 and 24 hours of incubation by liquid-chromatography-coupled mass spectrometry (LC–MS); details: 2 µM
[3] = human gut metagenome, 24 h, 2 µM; remark: listed apart in the source
[4] = human gut metagenome, 24 h, 2 µM; remark: listed apart in the source
[5] = as §1, with “WLS-069” for “Z-028”, “human” for “mouse”, “ERS12561748” for “ERS12561827”; details: 2 µM
[6] = as §1, with “Z-016” for “Z-028”, “ERS12561815” for “ERS12561827”; details: 2 µM
[7] = as §1, with “WLS-082” for “Z-028”, “human” for “mouse”, “ERS12561751” for “ERS12561827”; details: 2 µM
[8] = as §1, with “Z-024” for “Z-028”, “pig” for “mouse”, “ERS12561823” for “ERS12561827”; details: 2 µM
[9] = as §1, with “Z-022” for “Z-028”, “ERS12561821” for “ERS12561827”; details: 2 µM
[10] = human gut metagenome, 24 h, 2 µM; remark: listed apart in the source
[11] = as §1, with “WLS-098” for “Z-028”, “human” for “mouse”, “ERS12561754” for “ERS12561827”; details: 2 µM
[12] = human gut metagenome, 24 h, 2 µM; remark: listed apart in the source
[13] = as §1, with “WLS-052” for “Z-028”, “human” for “mouse”, “ERS12561747” for “ERS12561827”; details: 2 µM
[14] = human gut metagenome, 24 h, 2 µM; remark: listed apart in the source
[15] = as §1, with “WLS-027” for “Z-028”, “human” for “mouse”, “ERS12561744” for “ERS12561827”; details: 2 µM
[16] = as §1, with “WLS-240” for “Z-028”, “human” for “mouse”, “ERS12561773” for “ERS12561827”; details: 2 µM
[17] = human gut metagenome, 24 h, 2 µM; remark: listed apart in the source
[18] = as §1, with “Z-027” for “Z-028”, “to” for “to mouse gut”, “ERS12561826” for “ERS12561827”; details: 2 µM
[19] = human gut metagenome, 24 h, 2 µM; remark: listed apart in the source
[20] = as §1, with “WLS-073” for “Z-028”, “human” for “mouse”, “ERS12561749” for “ERS12561827”; details: 2 µM
Also: call rule not given here.

| Bacterial Biotransformation [1] | Bacterial Biotransformation [2] | Bacterial Biotransformation [3] | Bacterial Biotransformation [4] | Bacterial Biotransformation [5] | Bacterial Biotransformation [6] | Bacterial Biotransformation [7] | Bacterial Biotransformation [8] | Bacterial Biotransformation [9] | Bacterial Biotransformation [10] | Bacterial Biotransformation [11] | Bacterial Biotransformation [12] | Bacterial Biotransformation [13] | Bacterial Biotransformation [14] | Bacterial Biotransformation [15] | Bacterial Biotransformation [16] | Bacterial Biotransformation [17] | Bacterial Biotransformation [18] | Bacterial Biotransformation [19] | Bacterial Biotransformation [20] | SMILES |
| --- | --- | --- | --- | --- | --- | --- | --- | --- | --- | --- | --- | --- | --- | --- | --- | --- | --- | --- | --- | --- |
| Compound NOT metabolized | Compound NOT metabolized | Compound NOT metabolized | Compound NOT metabolized | Compound NOT metabolized | Compound NOT metabolized | Compound NOT metabolized | Compound metabolized | Compound NOT metabolized | Compound metabolized | Compound metabolized | Compound metabolized | Compound NOT metabolized | Compound metabolized | Compound NOT metabolized | Compound metabolized | Compound NOT metabolized | Compound NOT metabolized | Compound metabolized | Compound NOT metabolized | CN1CCC(OC(c2ccccc2)c2ccccc2)CC1 |
| Compound metabolized | Compound NOT metabolized | Compound metabolized | Compound metabolized | Compound metabolized | Compound NOT metabolized | Compound metabolized | Compound metabolized | Compound NOT metabolized | Compound metabolized | Compound metabolized | Compound metabolized | Compound metabolized | Compound metabolized | Compound metabolized | Compound metabolized | Compound NOT metabolized | Compound NOT metabolized | Compound metabolized | Compound metabolized | CC1=C(CC(=O)O)c2cc(F)ccc2/C1=C\c1ccc([S+](C)[O-])cc1 (centres undefined) |
| Compound metabolized | Compound NOT metabolized | Compound NOT metabolized | Compound NOT metabolized | Compound metabolized | Compound NOT metabolized | Compound metabolized | Compound NOT metabolized | Compound NOT metabolized | Compound metabolized | Compound metabolized | Compound metabolized | Compound metabolized | Compound metabolized | Compound metabolized | Compound metabolized | Compound NOT metabolized | Compound NOT metabolized | Compound NOT metabolized | Compound metabolized | CCOC(=O)[C@H](CCc1ccccc1)N[C@@H](C)C(=O)N1Cc2ccccc2C[C@H]1C(=O)O |
| Compound metabolized | Compound metabolized | Compound metabolized | Compound metabolized | Compound metabolized | Compound metabolized | Compound metabolized | Compound metabolized | Compound metabolized | Compound metabolized | Compound metabolized | Compound metabolized | Compound metabolized | Compound metabolized |  | Compound metabolized | Compound metabolized | Compound metabolized |  |  | C#C[C@]1(OC(C)=O)CC[C@H]2[C@@H]3CCC4=C[C@@H](OC(C)=O)CC[C@@H]4[C@H]3CC[C@@]21C [ETHYNODIOL DIACETATE] |
| Compound metabolized | Compound NOT metabolized | Compound NOT metabolized | Compound NOT metabolized | Compound metabolized | Compound NOT metabolized | Compound metabolized | Compound NOT metabolized |  | Compound NOT metabolized | Compound metabolized | Compound metabolized | Compound metabolized | Compound metabolized | Compound metabolized | Compound metabolized | Compound metabolized | Compound NOT metabolized | Compound metabolized | Compound NOT metabolized | O=C1N=C([O-])NC1(c1ccccc1)c1ccccc1.[Na+] [PHENYTOIN SODIUM] |
| Compound metabolized | Compound metabolized | Compound metabolized | Compound metabolized | Compound metabolized | Compound metabolized | Compound metabolized | Compound metabolized | Compound metabolized |  | Compound metabolized | Compound metabolized | Compound metabolized | Compound metabolized | Compound metabolized | Compound metabolized | Compound NOT metabolized | Compound NOT metabolized | Compound NOT metabolized | Compound metabolized | C[C@]12C=CC(=O)C=C1CC[C@@H]1[C@@H]2C(=O)C[C@@]2(C)[C@H]1CC[C@]2(O)C(=O)CO [PREDNISONE] |
| Compound metabolized | Compound NOT metabolized | Compound NOT metabolized | Compound NOT metabolized |  | Compound NOT metabolized | Compound NOT metabolized | Compound NOT metabolized |  | Compound NOT metabolized | Compound NOT metabolized | Compound NOT metabolized |  | Compound NOT metabolized | Compound NOT metabolized | Compound NOT metabolized | Compound NOT metabolized | Compound NOT metabolized | Compound NOT metabolized |  | CN(C/C=C/C#CC(C)(C)C)Cc1cccc2ccccc12 [TERBINAFINE] |
| Compound metabolized | Compound metabolized | Compound metabolized | Compound metabolized | Compound metabolized | Compound metabolized | Compound metabolized | Compound metabolized | Compound metabolized | Compound metabolized | Compound metabolized | Compound metabolized | Compound metabolized |  | Compound metabolized | Compound metabolized | Compound metabolized | Compound metabolized | Compound metabolized | Compound metabolized | CCS(=O)(=O)CCn1c([N+](=O)[O-])cnc1C [TINIDAZOLE] |
| Compound metabolized | Compound metabolized | Compound metabolized | Compound metabolized |  | Compound metabolized | Compound metabolized | Compound metabolized | Compound metabolized | Compound metabolized | Compound metabolized | Compound metabolized | Compound metabolized | Compound metabolized | Compound metabolized | Compound metabolized | Compound metabolized | Compound NOT metabolized | Compound metabolized | Compound metabolized | N#Cc1ccc2[nH]cc(CCCCN3CCN(c4ccc5oc(C(N)=O)cc5c4)CC3)c2c1 [VILAZODONE] |
